The test system of one experiment is ASZ001 BCC cells. Briefly: Trypan blue growth count of ASZ001 BCC cells. It is filed as cell-based, mouse. Particulars: compared with Cyclopamine, Vismodegib and LDE-225. As for the experimental part: After the indicated times, a trypan blue count was performed to determine the growth rate.
Cell proliferation was evaluated by BrdU detection (Roche, Welwyn Garden City, UK). Briefly, after the BrdU pulse (24 h for GCPs) cells were fixed with 4% paraformaldehyde and permeabilized with 0.2% Triton X-100, and BrdU detection was performed according to the manufacturer's instructions. Nuclei were counterstained with Hoechst reagent. At least 500 nuclei were counted in triplicate, and the number of BrdU-positive nuclei was recorded. To determine the growth rate of viable cells, a trypan blue count was performed after a treatment period of 24–48–72 h with studied compound.

In the next experiment the target is T1, murine Smo WT (Mus musculus, UniProt P56726).
T1 construct: Flag; expressed in transfected cells; host or cells: HEK293T
In words: Bodipy-Cyclopamine (BC) binding assay, HEK293T cells transfected with mouse Smo WT. The protocol:
(§1) Cells were washed in PBS supplemented with 0.5% fetal bovine serum, fixed in 4% paraformaldehyde in phosphate-buffered saline (PBS) for 10 min, and incubated for 2 h at 37 °C both in the same medium supplemented with Bodipy-Cyclopamine (5 nM) and the studied compounds. The cells were permeabilized with Triton X100 (Sigma) 0.2%. Dako Fluorescent mounting (Dako, Carpinteria, CA, USA) was used as mounting medium and Hoechst reagent for staining of the cell nuclei. Bodipy (green) and Hoechst (blue) signals were analyzed in three to four representative fields per coverslip (× 20 magnification, 1000 cells/field). Data were expressed as percentage of BC incorporation observed with BC alone.[95]
(§2) BC binding (green) is visualized using fluorescence microscopy in a representative field (a). […] Quantitative data are the average BC intensity from five independent fluorescence microscopy images.

For experiment [1], the system named is Hh target genes in SuFu^−/− MEFs. Briefly: qRT-PCR of endogenous Hh target genes in SuFu−/− MEFs. It counts as cell-based, mouse. The settings on record: 48 h. As for the experimental part:
(§3) Total RNA was isolated with Trizol (Invitrogen/Life Technologies, Carlsbad, CA, USA) and reverse transcribed with SensiFAST cDNA Synthesis Kit (Bioline Reagents Limited, London, UK). Quantitative real-time PCR (Q-PCR) analysis of Gli1, Gli2, Ptch1, Bmp2, Pfkfb3, CycD1, CycD2, Pcna, Oct4, Nanog, β-2 microglobulin, β-actin and HPRT mRNA expression was performed on each cDNA sample using the VIIA7 Real Time PCR System employing Assay-on-Demand Reagents (Life Technologies).

A further experiment concerns the target T2, human Smo WT (Homo sapiens, UniProt Q99835).
T2 construct: Myc-DDK; expressed in transfected cells; host or cells: HEK293T
In words: Bodipy-Cyclopamine (BC) binding assay, HEK293T cells transfected with human Smo WT. The settings on record: BC (5 nM) displacement, transiently transfected 293T cells. As for the experimental part: as §1

The next experiment addresses T3, murine Smo D477G (Mus musculus, UniProt P56726, D477G).
T3 construct: Flag; expressed in transfected cells; host or cells: HEK293T
In words: Bodipy-Cyclopamine (BC) binding assay, HEK293T cells transfected with mouse Smo D477G. As for the experimental part:
as §1, §2

In a further experiment the test system is AP1/Jun pathway. In words: AP1/Jun luciferase reporter assay (MMP1-luciferase reporter and c-Jun) in MEFs WT. It counts as cell-based, mouse. Particulars: increasing concentrations, 24 h. As for the experimental part:
Figure 2 Compound 12 inhibits Hh signaling without affecting AP1/Jun and WNT/β-Catenin pathways. (a) The graphs show the Hh target genes expression levels in Ptch1^−/− MEFs treated for 48 h with 12 or DMSO as control. mRNA levels were determined by quantitative real-time PCR (qRT-PCR) normalized to endogenous control (β2-microglobulin and HPRT). Pfkfb3 gene was used as negative control. *P<0.05 versus CTR. (b and c) AP1/Jun and WNT/β-Catenin pathways activity were assayed in MEFs WT transfected with MMP1-luciferase reporter and c-Jun (b) or Top Flash-luciferase reporter and β-Catenin (c), respectively, in the presence or absence of increasing concentrations of compound 12. Treatment time was 24 h, and normalization was against Renilla luciferase.
(In a reporter assay the amount or activity of a reporter protein is the signal.)

Experiment [2] relates to Hh pathway readouts, stemness markers and growth genes in MB stem-like cells. Briefly: qRT-PCR of Hh, proliferation and stemness targets in MB stem-like cells. It is filed as cell-based, mouse. Particulars: 48 h. As for the experimental part:
Figure 5 Compound 12 inhibition of Hh-dependent MB tumor cell growth. […] (a and b) After the indicated times, a trypan blue count was performed to determine the growth rate of viable cells. (c) Gli1 mRNA expression levels were determined by qRT-PCR normalized to endogenous control (β2-microglobulin and HPRT). (d–f) Compound 12 inhibits MB-SCs self-renewal. (d) Suspension of single MB-SCs isolated from Ptch1^+/− mice were cultured in stem cell medium to allow the formation of primary neurospheres. Primary neurospheres were dissociated and treated with increasing concentrations of compound 12, Cyclopamine or DMSO only. After 7 days of treatment, the number of secondary neurospheres derived from a known number of single cells was counted. The self-renewal MB-SCs' capability is expressed as percentage of neurosphere-forming cells. […]
Total RNA was isolated with Trizol (Invitrogen/Life Technologies, Carlsbad, CA, USA) and reverse transcribed with SensiFAST cDNA Synthesis Kit (Bioline Reagents Limited, London, UK). Quantitative real-time PCR (Q-PCR) analysis of Gli1, Gli2, Ptch1, Bmp2, Pfkfb3, CycD1, CycD2, Pcna, Oct4, Nanog, β-2 microglobulin, β-actin and HPRT mRNA expression was performed on each cDNA sample using the VIIA7 Real Time PCR System employing Assay-on-Demand Reagents (Life Technologies). […]
(In general: Real-time PCR tracks product formation cycle by cycle.)

The next experiment has as its system Gli1 mRNA. Briefly: Gli1 mRNA (qRT-PCR) in DAOY cells. It is filed as cell-based, human. The settings on record: after treatment. The protocol: After the indicated times, a trypan blue count was performed to determine the growth rate. […] Results were normalized to endogenous control (β-actin and HPRT).
as §3

Setting [3] is: BC (5 nM) displacement, transiently transfected 293T cells.
Setting [4] is: HEK293T cells, various concentrations.

The structures appear in SMILES notation. Entries after “also recorded” stand apart in the source; their conditions may differ.

T3 sequence (P56726 33-793 D477G): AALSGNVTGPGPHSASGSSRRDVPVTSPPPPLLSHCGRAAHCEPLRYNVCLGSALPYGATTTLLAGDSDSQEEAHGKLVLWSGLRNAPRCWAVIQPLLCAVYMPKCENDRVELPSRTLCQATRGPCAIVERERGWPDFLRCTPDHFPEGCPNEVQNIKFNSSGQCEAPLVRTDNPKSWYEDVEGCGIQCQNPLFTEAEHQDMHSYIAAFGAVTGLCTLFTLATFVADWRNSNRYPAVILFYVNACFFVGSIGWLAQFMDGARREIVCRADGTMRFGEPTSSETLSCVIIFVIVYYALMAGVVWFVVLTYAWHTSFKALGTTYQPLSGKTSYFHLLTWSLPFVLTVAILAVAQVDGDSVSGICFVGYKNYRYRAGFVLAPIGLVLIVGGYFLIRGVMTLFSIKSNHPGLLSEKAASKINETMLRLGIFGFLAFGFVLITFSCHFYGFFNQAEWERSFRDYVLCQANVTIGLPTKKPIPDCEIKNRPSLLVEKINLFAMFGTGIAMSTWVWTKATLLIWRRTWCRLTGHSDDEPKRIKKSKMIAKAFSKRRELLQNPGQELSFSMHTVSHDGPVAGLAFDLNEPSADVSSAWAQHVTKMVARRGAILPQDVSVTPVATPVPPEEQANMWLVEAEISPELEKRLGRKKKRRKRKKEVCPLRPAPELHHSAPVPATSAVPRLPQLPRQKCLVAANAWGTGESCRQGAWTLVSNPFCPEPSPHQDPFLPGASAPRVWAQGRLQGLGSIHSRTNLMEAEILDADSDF
T1 sequence (P56726 33-793): as the sequence (P56726 33-793 D477G) above, with G445D counted along it
T2 sequence (Q99835 28-787): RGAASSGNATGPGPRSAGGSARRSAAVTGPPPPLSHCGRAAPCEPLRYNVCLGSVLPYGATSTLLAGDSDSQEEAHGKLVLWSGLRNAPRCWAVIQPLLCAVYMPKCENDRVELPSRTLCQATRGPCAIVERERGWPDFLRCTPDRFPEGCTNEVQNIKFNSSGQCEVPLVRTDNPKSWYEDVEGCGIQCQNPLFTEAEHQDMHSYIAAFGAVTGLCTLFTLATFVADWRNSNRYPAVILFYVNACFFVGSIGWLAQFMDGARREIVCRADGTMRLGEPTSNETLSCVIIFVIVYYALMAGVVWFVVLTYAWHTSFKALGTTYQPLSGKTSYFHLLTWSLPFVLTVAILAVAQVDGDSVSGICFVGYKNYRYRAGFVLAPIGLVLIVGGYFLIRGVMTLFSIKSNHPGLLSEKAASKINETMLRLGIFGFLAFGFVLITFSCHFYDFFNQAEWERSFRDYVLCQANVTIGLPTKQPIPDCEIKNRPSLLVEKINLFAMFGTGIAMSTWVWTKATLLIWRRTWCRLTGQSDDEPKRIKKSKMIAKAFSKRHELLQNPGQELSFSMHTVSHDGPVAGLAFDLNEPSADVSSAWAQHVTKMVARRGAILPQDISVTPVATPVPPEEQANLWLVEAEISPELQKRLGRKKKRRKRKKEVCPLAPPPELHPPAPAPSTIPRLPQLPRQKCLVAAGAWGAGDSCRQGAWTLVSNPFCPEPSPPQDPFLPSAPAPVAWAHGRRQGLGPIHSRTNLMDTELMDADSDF

By IC50 is commonly meant the concentration that gives 50% inhibition. High values mean a need for much substance, low ones inhibition by little substance. `COc1ccc(C=CC(=O)c2cc(OC)c(OC)cc2OC)cc1OC` [Compound 12, 3-(3,4-dimethoxy-phenyl)-1-(2,4,5-trimethoxy-phenyl)-2-propen-1-one]: the “ASZ001 BCC cell growth in vitro” value with ASZ001 BCC cells is given as “significant efficacy to impair ASZ001 BCC cell growth”. For the same compound, the figures for the IC50 on murine Smo WT (setting [3]), at human Smo WT and at murine Smo D477G (setting [3]) were 45.6 µM, 24.5 µM and 56.7 µM, respectively. Further, the “inhibition of BC binding to murine Smo WT” value on murine Smo WT (setting [4]) is “significantly inhibited BC binding”. Further, in experiment [1], the “expression of endogenous Hh target genes in SuFu^−/− MEFs” value is “suppressed the expression of endogenous Hh target genes”. Further, the “inhibition of BC binding to mouse Smo D477G mutant” value at murine Smo D477G (setting [4]) is given as “significantly inhibited BC binding”. In addition, the “Fold shift murine Smo” value at murine Smo D477G (IC50 Smo D477G / IC50 Smo WT) is reported as 1.243. Also, the “luciferase activity driven by Jun/AP1 signaling” value in the experiment with AP1/Jun pathway is “without affecting luciferase activity; also recorded: inactive”. In addition, the “Hh pathway activity in MB stem-like cells (Gli1, Gli2, Ptch1, Nanog, Oct4, cyclins D1 and D2, Pcna mRNAs)” value in experiment [2] was “reduced Hh pathway activity”. Moreover, in the experiment with Gli1 mRNA, the “Gli1 mRNA levels in DAOY cells” value is listed as “significant decrease of Gli1 mRNA levels”.

(Values after publication PMC5059851, “Inhibition of Hedgehog-dependent tumors and cancer stem cells by a newly identified naturally occurring chemotype” (Cell Death & Disease, 2016).)
